A word on the Ki: it is the dissociation constant of the complex between target and ligand, obtained from inhibition or displacement. Read a high Ki as a looser hold on the target. A word on the IC50: it is the point on the concentration scale where inhibition reaches its midpoint.

Consider 22 compounds from patent US10988477B2 (Merck Patent GmbH, priority 2018, dated 2021).

Some results are limits rather than exact numbers.

One assay concerns the target GCN2 kinase (Homo sapiens, UniProt Q9P2K8). Put plainly: GCN2 enzyme inhibition assay (Transcreener ADP2 fluorescence polarization). Format: biochemical. The settings on record: compounds of Formula II; 280 μM ATP, 4 nM GCN2 kinase. In outline: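 ADP formation read by Transcreener FP after a 1 h, 25 °C kinase reaction containing 280 μM ATP, 200 μM (RS)7 substrate and 4 nM GCN2, pH 7.5 Tris buffer. Compounds (0–8 μM final) were added 10 min before ATP. Percent inhibition gave IC50 and apparent Ki via tight-binding fit.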
On the technique in general: Polarisation of emitted light reports the rotation of a fluorescent probe.

Assay [1] has as its target intracellular GCN2 (phosphorylation of the GCN2 substrate eIF2α) (Homo sapiens, UniProt Q9P2K8). Put plainly: GCN2 cellular inhibition assay (AlphaScreen SureFire P-eIF2α Ser51, borrelidin-treated U2OS cells). The class given is cell-based. Conditions: compounds of Formula II; biomarker assay, phosphorylated eIF2α Ser51 in borrelidin-treated U2OS cells. Put shortly:
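Compound effect on GCN2 is gauged by eIF2α Ser51 phosphorylation in borrelidin-challenged U2OS cells (10 μM, 1 h). Top compound level is 40 μM final.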

GCN2 kinase, sequence (Q9P2K8 whole entry): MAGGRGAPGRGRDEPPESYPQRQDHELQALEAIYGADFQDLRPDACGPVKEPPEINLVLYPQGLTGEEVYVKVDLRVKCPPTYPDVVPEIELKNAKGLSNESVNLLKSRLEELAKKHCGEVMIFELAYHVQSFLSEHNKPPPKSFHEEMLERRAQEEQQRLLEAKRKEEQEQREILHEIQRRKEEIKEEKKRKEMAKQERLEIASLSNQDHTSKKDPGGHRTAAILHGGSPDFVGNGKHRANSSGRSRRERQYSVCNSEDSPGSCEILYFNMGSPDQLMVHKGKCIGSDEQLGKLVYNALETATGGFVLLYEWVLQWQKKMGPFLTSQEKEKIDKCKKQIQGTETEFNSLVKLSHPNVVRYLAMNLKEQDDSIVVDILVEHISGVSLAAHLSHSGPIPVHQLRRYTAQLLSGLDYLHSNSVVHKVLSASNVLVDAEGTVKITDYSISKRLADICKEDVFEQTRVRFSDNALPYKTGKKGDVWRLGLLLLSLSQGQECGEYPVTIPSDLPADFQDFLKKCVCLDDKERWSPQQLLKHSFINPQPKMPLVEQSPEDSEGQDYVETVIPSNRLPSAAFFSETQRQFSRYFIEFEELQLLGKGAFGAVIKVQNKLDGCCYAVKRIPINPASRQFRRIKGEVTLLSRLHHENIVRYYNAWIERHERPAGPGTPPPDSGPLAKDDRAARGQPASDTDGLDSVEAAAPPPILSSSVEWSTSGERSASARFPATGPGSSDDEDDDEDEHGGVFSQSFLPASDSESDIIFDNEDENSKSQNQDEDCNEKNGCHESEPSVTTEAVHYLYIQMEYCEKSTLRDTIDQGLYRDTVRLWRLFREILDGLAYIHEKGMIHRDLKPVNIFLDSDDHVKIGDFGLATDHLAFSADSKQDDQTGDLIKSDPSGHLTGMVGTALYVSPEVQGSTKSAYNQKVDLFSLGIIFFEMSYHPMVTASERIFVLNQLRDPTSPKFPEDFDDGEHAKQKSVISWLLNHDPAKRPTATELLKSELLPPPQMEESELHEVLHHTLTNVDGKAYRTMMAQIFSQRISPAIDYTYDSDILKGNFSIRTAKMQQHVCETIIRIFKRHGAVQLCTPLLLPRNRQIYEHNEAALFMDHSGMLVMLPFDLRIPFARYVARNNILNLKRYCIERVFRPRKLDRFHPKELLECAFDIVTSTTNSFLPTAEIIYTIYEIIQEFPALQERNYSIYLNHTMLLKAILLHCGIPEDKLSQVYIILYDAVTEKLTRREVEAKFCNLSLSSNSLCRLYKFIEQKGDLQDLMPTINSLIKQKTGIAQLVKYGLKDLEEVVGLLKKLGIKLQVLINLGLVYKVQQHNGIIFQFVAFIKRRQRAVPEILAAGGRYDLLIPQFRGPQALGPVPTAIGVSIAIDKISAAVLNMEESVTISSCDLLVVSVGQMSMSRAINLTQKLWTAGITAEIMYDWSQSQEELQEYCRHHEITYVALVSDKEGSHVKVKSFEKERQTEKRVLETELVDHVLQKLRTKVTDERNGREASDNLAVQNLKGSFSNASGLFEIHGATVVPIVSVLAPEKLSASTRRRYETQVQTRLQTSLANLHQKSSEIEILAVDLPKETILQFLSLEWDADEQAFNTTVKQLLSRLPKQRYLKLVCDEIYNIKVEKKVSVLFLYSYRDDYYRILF
intracellular GCN2 (phosphorylation of the GCN2 substrate eIF2α), sequence (Q9P2K8 whole entry): as above

In turn, `CS(=O)(=O)N1CCN(C(=O)C2CCCN(c3cc(-c4cnc5ccc(C(F)F)nn45)ncn3)C2)CC1` (centres unmarked) [II-206, (1-(6-(6-(Difluoromethyl)imidazo[1,2-b]pyridazin-3-yl)pyrimidin-4-yl)piperidin-3-yl)(4-(methylsulfonyl)piperazin-1-yl)methanone] yielded a Ki at GCN2 kinase of 10 to 1000 nM. The IC50 in assay [1] is more than 5000 nM.

On to `O=C1CCCC2CN(c3cc(-c4cnc5ccc(Cl)nn45)ccn3)CCN12` (centres unmarked) [II-207, 2-(4-(6-Chloroimidazo[1,2-b]pyridazin-3-yl)pyridin-2-yl)hexahydro-1H-pyrido[1,2-a]pyrazin-6(2H)-one], for which the inhibition constant Ki at GCN2 kinase was in the range of 10 to 1000 nM. In assay [1], this compound came in with a 50% inhibitory concentration (IC50) of more than 5000 nM.

Take `CC(=O)N1CCN(c2cc(-c3cnc4ccc(Cl)nn34)ccn2)CC1` [II-208, 1-(4-(4-(6-Chloroimidazo[1,2-b]pyridazin-3-yl)pyridin-2-yl)piperazin-1-yl)ethanone]: the Ki on GCN2 kinase lay within 10 to 1000 nM. The compound further displayed an IC50 in assay [1] of more than 5000 nM.

The compound `COCC(=O)NCCC1CCCN(c2cc(-c3cnc4ccc(C(F)F)nn34)ncn2)C1` (centres unmarked) [II-209, N-(2-(1-(6-(6-(Difluoromethyl)imidazo[1,2-b]pyridazin-3-yl)pyrimidin-4-yl)piperidin-3-yl)ethyl)-2-methoxyacetamide] registered an inhibition constant Ki on GCN2 kinase of 10 to 1000 nM. The IC50 in assay [1] is more than 5000 nM.

With `NC(=O)C1COCCN(c2cc(-c3cnc4ccc(C(F)F)nn34)ncn2)C1` (centres unmarked) [II-210, 4-(6-(6-(Difluoromethyl)imidazo[1,2-b]pyridazin-3-yl)pyrimidin-4-yl)-1,4-oxazepane-6-carboxamide], the Ki on GCN2 kinase is 10 to 1000 nM. Also, the IC50 in assay [1] is more than 5000 nM.

The compound `O=C1CCC2(CCN(c3cc(-c4cnc5ccc(C(F)F)nn45)ncn3)CC2)CN1` [II-211, 9-(6-(6-(Difluoromethyl)imidazo[1,2-b]pyridazin-3-yl)pyrimidin-4-yl)-2,9-diazaspiro[5.5]undecan-3-one] came in with a Ki on GCN2 kinase of 10 to 1000 nM. Also, the IC50 in assay [1] is 500 to 5000 nM.

The compound `NC(=O)CCC1CCN(c2cc(-c3cnc4ccc(C(F)F)nn34)ncn2)CC1` [II-212, 3-(1-(6-(6-(Difluoromethyl)imidazo[1,2-b]pyridazin-3-yl)pyrimidin-4-yl)piperidin-4-yl)propanamide] registered a Ki at GCN2 kinase of 10 to 1000 nM. The same compound registered an IC50 in assay [1] of 500 to 5000 nM.

With `CC1(C)CN(c2cc(-c3cnc4ccc(C(F)F)nn34)ncn2)CC1CNS(C)(=O)=O` (centres unmarked) [II-213, N-((1-(6-(6-(Difluoromethyl)imidazo[1,2-b]pyridazin-3-yl)pyrimidin-4-yl)-4,4-dimethylpyrrolidin-3-yl)methyl)methanesulfonamide], the Ki on GCN2 kinase was less than 10 nM. Moreover, in assay [1], the IC50 lay in the range of 500 to 5000 nM.

Regarding `NC(=O)CCC1CCCN(c2cc(-c3cnc4ccc(C(F)F)nn34)ncn2)C1` (centres unmarked) [II-214, 3-(1-(6-(6-(Difluoromethyl)imidazo[1,2-b]pyridazin-3-yl)pyrimidin-4-yl)piperidin-3-yl)propanamide], the Ki on GCN2 kinase lay within 10 to 1000 nM. Moreover, the IC50 in assay [1] was in the range of 500 to 5000 nM.

Regarding `NC(=O)NCC1CCCN(c2cc(-c3cnc4ccc(C(F)F)nn34)ncn2)C1` (centres unmarked) [II-215, 1-((1-(6-(6-(Difluoromethyl)imidazo[1,2-b]pyridazin-3-yl)pyrimidin-4-yl)piperidin-3-yl)methyl)urea], at GCN2 kinase, the Ki is 10 to 1000 nM. This compound also came in with an IC50 in assay [1] of 500 to 5000 nM.

At GCN2 kinase, `O=C(NC1CC1)NC1CCN(c2cc(-c3cnc4ccc(C(F)F)nn34)ncn2)C1` (centres unmarked) [II-216, 1-Cyclopropyl-3-(1-(6-(6-(difluoromethyl)imidazo[1,2-b]pyridazin-3-yl)pyrimidin-4-yl)pyrrolidin-3-yl)urea] had a Ki of 10 to 1000 nM. For the same compound, in assay [1], the IC50 is more than 5000 nM.

As for `FC(F)c1ccc2ncc(-c3cc(N4CCC(Cc5ccn[nH]5)CC4)ncn3)n2n1` [II-217, 3-(6-(4-((1H-Pyrazol-5-yl)methyl)piperidin-1-yl)pyrimidin-4-yl)-6-(difluoromethyl)imidazo[1,2-b]pyridazine], the Ki on GCN2 kinase is 10 to 1000 nM. The compound further came in with an IC50 in assay [1] of 500 to 5000 nM.

`CC(=O)Nc1cccc2c1CCN(c1cc(-c3cnc4ccc(C(F)F)nn34)ncn1)C2` [II-218, N-(2-(6-(6-(Difluoromethyl)imidazo[1,2-b]pyridazin-3-yl)pyrimidin-4-yl)-1,2,3,4-tetrahydroisoquinolin-5-yl)acetamide]: the Ki on GCN2 kinase was in the range of 10 to 1000 nM. In addition, in assay [1], the IC50 was in the range of 500 to 5000 nM.

Regarding `NS(=O)(=O)CC1CCCN(c2cc(-c3cnc4ccc(C(F)F)nn34)ncn2)C1` (centres unmarked) [II-219, (1-(6-(6-(Difluoromethyl)imidazo[1,2-b]pyridazin-3-yl)pyrimidin-4-yl)piperidin-3-yl)methanesulfonamide], the Ki at GCN2 kinase is less than 10 nM. Moreover, the IC50 in assay [1] is less than 500 nM.

For `CC1C(CNS(C)(=O)=O)CCCN1c1cc(-c2cnc3ccc(C(F)F)nn23)ncn1` (centres unmarked) [II-221, N-((1-(6-(6-(Difluoromethyl)imidazo[1,2-b]pyridazin-3-yl)pyrimidin-4-yl)-2-methylpiperidin-3-yl)methyl)methanesulfonamide], the Ki on GCN2 kinase was less than 10 nM. Also, in assay [1], the IC50 was less than 500 nM.

As for `CC(=O)N1CCCC(c2cc(-c3cnc4ccc(C(F)F)nn34)ncn2)C1` (centres unmarked) [II-222, 1-(3-(6-(6-(Difluoromethyl)imidazo[12-b]pyridazin-3-yl)pyrimidin-4-yl)piperidin-1-yl)ethan-1-one], at GCN2 kinase, the Ki lay within 10 to 1000 nM. Moreover, the IC50 in assay [1] fell in the range of 500 to 5000 nM.

Compound `CC(=O)N1CCN(c2cc(-c3cnc4ccc(C(F)(F)F)nn34)ccn2)CC1` [II-223, 1-(4-(4-(6-(Trifluoromethyl)imidazo[1,2-b]pyridazin-3-yl)pyridin-2-yl)piperazin-1-yl)ethanone] came in with a Ki at GCN2 kinase of 10 to 1000 nM. In assay [1], this compound registered an IC50 of more than 5000 nM.

At GCN2 kinase, `CS(=O)(=O)NC[C@@H]1CN(c2cc(-c3cnc4ccc(C(F)(F)F)nn34)ccn2)CCO1` [II-224, (S)—N-((4-(4-(6-(Trifluoromethyl)imidazo[1,2-b]pyridazin-3-yl)pyridin-2-yl)morpholin-2-yl)methyl)methanesulfonamide] returned an inhibition constant Ki of 10 to 1000 nM. The compound further registered an IC50 in assay [1] of 500 to 5000 nM.

Compound `FC(F)(F)c1ccc2ncc(-c3ccnc(N4CCOC(c5cn[nH]c5)C4)c3)n2n1` (centres unmarked) [II-225, 2-(1H-Pyrazol-4-yl)-4-(4-(6-(trifluoromethyl)imidazo[1,2-b]pyridazin-3-yl)pyridin-2-yl)morpholine] yielded a Ki on GCN2 kinase of less than 10 nM. Besides, the IC50 in assay [1] is less than 500 nM.

Compound `O=C1OC2(CC2)[C@@H]2CN(c3cc(-c4cnc5ccc(C(F)(F)F)nn45)ccn3)CCN12` [II-226, (S)-7′-(4-(6-(Trifluoromethyl)imidazo[1,2-b]pyridazin-3-yl)pyridin-2-yl)tetrahydrospiro[cyclopropane-1,1′-oxazolo[3,4-a]pyrazin]-3′(5′H)-one] came in with a Ki at GCN2 kinase of 10 to 1000 nM. In assay [1], the IC50 is 500 to 5000 nM.

As to `CS(=O)(=O)CC1CCCN(c2cc(-c3cnc4ccc(C(F)(F)F)nn34)ccn2)C1` (centres unmarked) [II-227, 3-(2-(3-((Methylsulfonyl)methyl)piperidin-1-yl)pyridin-4-yl)-6-(trifluoromethyl)imidazo[1,2-b]pyridazine], on GCN2 kinase, the Ki lay within 10 to 1000 nM. The compound further came in with an IC50 in assay [1] of more than 5000 nM.

`CS(=O)(=O)C1CCCN(c2cc(-c3cnc4ccc(C(F)(F)F)nn34)ccn2)C1` (centres unmarked) [II-228, 3-(2-(3-(Methylsulfonyl)piperidin-1-yl)pyridin-4-yl)-6-(trifluoromethyl)imidazo[1,2-b]pyridazine] had a Ki at GCN2 kinase of 10 to 1000 nM. The IC50 in assay [1] was more than 5000 nM.
